Each structure is given as a SMILES string. Where two headings read alike, the source gives them in different places.

These results are taken from patent publication US8133913B2, “Substituted indeno [1,2-b]indole derivatives as novel inhibitors of protein kinase CK2 and their use as tumor therapeutic agents, cytostatics and diagnostic aids” (Heinrich-Heine Universitat Dusseldof, priority 2006, dated 2012).

What all share (assay): Radiometric protein kinase assay (33PanQinase Activity Assay)
Holding throughout (type): biochemical

In one assay the target is T1, AKT1 (Homo sapiens, UniProt P31749).
T1 construct: made in house; host or cells: Sf9 insect cells, baculovirus
T1 sequence (P31749 whole entry): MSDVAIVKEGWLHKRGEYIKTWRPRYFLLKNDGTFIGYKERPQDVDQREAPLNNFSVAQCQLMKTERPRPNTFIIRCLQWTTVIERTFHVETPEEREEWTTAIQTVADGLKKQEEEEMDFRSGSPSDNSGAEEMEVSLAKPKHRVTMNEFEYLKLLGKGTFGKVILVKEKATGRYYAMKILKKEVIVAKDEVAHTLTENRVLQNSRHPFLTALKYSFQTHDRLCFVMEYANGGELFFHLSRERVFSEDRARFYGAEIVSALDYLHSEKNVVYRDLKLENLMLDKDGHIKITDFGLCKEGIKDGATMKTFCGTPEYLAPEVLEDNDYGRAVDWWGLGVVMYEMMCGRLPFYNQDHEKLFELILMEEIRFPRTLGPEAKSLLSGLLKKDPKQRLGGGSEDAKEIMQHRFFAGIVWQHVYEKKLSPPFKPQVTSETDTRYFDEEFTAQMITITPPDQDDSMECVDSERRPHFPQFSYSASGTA
The text has this: (§1) AKTI1, ARK5, Aurora-A, Aurora-B, B-RAF-VE, CDK2/CycA, CDK4/CycD1, CK2-alpha1 (catalytic subunit of CK2), EGF-R, EPHB4, ERBB2, FAK, IGF1-R, SRC, VEGF-R2, VEGF-R3, FLT3, INS-R, MET, PDGFR-beta, PLK1, SAK, TIE2, COT.
(§2) All the protein kinases were expressed in Sf9 insect cells as human recombinant GST fusion proteins or His-tagged proteins by the baculovirus expression system. Kinases were purified by affinity chromatography either by GSH-agarose (Sigma) or Ni—NTH-agarose (Qiagen). The purity of the kinases was tested by SDS-PAGE/silver staining, and the identity of the kinases was verified by Western blot analysis with specific antibodies or mass spectroscopy.
(§3) A radiometric protein kinase assay (33PanQinase® Activity Assay) was used to measure the kinase activity for the 24 protein kinases. The kinase assays were carried out in 96-well FlashPlates™ from Perkin Elmer/NEN (Boston, Mass., USA) in a reaction volume of 50 μl. The reaction mixture was pipetted in 4 steps in the following sequence: • 20 μl of assay buffer • 5 μl of ATP solution (in H2O) • 5 μl of test compound (in 10% DMSO) • 10 μl of substrate/10 μl of enzyme solution (premixed)
(§4) The assays for all the enzymes contained 60 mM HEPES-NaOH, pH 7.5, 3 mM MgCl2, 3 mM MnCl2, 3 μM Na orthovanadate, 1.2 mM DTT, 50 μg/ml PEG20000, 1 μM [γ-^33P]-ATP (about 5×10^5 cpm per well).
(§5) The reaction mixture was incubated at 30° C. for 80 minutes. The reaction was stopped with 50 μl of 2% (v/v) H3PO4. The plates were aspirated and washed twice with 200 μl of 0.9% (w/v) NaCl. The incorporation of ^33Pi was determined using a microtiter plates scintillation counter (Microbeta Trilux, Wallac).

Another assay has as its target T2, CDK4/CycD1 (Homo sapiens, UniProt P11802).
T2 construct: made in house; host or cells: Sf9 insect cells, baculovirus
Excerpt: as §1, §2, §3, §4, §5

For another assay, the target named is T3, COT (Homo sapiens, UniProt P41279).
T3 construct: made in house; host or cells: Sf9 insect cells (baculovirus)
T3 sequence (P41279 whole entry): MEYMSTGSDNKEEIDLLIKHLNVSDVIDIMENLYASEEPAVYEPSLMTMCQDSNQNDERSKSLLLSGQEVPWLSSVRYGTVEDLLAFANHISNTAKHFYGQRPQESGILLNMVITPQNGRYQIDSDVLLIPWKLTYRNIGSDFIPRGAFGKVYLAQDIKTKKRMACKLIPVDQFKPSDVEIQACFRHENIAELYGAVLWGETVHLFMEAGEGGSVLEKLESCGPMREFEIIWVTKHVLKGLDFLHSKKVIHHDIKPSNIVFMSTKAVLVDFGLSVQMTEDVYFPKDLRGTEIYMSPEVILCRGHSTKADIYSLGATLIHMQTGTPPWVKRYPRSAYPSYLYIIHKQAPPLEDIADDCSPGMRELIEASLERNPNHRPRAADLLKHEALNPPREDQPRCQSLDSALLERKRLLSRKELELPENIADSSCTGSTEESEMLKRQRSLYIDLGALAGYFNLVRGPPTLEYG
Excerpt: as §1, §2, §3, §4, §5

For the next assay, the target named is T4, FAK (Homo sapiens, UniProt Q05397).
T4 construct: made in house; host or cells: Sf9 insect cells, baculovirus
Excerpt: as §1, §2, §3, §4, §5

A further assay deals with T5, FLT3 (Homo sapiens, UniProt P36888).
T5 construct: made in house; host or cells: Sf9 insect cells, baculovirus
T5 sequence (P36888 27-993): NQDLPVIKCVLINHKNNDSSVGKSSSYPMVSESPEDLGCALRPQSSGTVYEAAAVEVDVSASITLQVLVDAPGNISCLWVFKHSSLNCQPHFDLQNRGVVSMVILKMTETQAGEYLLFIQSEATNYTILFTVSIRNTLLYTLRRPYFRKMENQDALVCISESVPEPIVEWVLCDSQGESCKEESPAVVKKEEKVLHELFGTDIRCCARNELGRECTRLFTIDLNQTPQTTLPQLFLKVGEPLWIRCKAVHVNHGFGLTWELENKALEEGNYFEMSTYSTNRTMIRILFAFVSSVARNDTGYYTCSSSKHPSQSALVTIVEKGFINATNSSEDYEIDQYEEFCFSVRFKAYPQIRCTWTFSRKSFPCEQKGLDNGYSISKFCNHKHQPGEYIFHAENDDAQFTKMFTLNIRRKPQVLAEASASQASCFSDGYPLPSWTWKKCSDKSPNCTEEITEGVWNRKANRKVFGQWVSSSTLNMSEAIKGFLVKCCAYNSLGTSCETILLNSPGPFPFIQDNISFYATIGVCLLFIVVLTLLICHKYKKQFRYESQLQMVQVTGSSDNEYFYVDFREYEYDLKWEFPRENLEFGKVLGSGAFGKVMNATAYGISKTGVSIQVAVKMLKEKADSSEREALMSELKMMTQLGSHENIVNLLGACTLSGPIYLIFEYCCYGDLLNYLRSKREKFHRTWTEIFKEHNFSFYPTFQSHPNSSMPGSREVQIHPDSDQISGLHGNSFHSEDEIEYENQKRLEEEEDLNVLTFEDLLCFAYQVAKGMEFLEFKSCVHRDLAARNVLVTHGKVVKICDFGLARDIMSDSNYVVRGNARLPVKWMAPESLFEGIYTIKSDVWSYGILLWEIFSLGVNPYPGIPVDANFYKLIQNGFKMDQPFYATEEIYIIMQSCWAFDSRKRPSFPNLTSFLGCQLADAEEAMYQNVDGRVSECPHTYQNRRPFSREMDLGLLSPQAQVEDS
Excerpt: as §1, §2, §3, §4, §5

A further assay concerns the target T6, MET (Homo sapiens, UniProt P08581).
T6 construct: made in house; host or cells: Sf9 insect cells, baculovirus
Excerpt: as §1, §2, §3, §4, §5

The target of another assay is T7, TIE2 (Homo sapiens, UniProt Q02763).
T7 construct: made in house; host or cells: Sf9 insect cells, baculovirus
T7 sequence (Q02763 23-1124): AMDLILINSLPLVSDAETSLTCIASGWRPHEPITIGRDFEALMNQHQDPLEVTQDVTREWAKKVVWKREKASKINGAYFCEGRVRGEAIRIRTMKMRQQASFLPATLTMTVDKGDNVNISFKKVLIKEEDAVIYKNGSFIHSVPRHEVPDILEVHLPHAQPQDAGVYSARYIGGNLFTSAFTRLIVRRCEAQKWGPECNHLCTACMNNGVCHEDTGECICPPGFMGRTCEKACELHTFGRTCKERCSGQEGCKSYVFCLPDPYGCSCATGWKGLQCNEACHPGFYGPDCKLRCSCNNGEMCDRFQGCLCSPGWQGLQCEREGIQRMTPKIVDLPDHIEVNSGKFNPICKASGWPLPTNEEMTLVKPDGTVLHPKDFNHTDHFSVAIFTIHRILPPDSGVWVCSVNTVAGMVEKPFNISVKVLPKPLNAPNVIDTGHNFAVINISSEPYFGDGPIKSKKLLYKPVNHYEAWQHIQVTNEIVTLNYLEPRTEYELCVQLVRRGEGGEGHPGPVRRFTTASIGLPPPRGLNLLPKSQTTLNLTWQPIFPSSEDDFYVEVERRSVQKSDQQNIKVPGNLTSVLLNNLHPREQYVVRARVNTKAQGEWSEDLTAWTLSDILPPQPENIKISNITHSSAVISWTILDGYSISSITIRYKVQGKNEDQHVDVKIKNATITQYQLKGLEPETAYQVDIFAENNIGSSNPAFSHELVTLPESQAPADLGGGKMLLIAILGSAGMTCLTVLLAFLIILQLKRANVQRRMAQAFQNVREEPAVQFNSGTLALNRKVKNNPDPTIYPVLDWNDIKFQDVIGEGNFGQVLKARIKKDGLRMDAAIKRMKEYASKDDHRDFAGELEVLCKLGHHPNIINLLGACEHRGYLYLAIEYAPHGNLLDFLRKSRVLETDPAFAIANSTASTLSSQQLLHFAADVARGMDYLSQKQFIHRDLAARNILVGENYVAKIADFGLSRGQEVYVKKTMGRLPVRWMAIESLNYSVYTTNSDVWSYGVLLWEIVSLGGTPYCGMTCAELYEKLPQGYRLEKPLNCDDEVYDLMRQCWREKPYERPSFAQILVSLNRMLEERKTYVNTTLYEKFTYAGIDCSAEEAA
Excerpt: as §1, §2, §3, §4, §5

A further assay has as its target T8, VEGF-R2 (Homo sapiens, UniProt P35968).
T8 construct: made in house; host or cells: Sf9 insect cells, baculovirus
Excerpt: as §1, §2, §3, §4, §5

[1] abbreviates: 1 μM ATP, read-out: IC50 values [μM] AKT1.
Where [2] appears, read: 1 μM ATP, read-out: IC50 values [μM] CDK4/CycD1.
The mark [3] stands for this setting: 1 μM ATP, autophosphorylation, read-out: IC50 values [μM] COT.
Where [4] appears, read: 1 μM ATP, read-out: IC50 values [μM] FAK.
[5] abbreviates: 1 μM ATP, read-out: IC50 values [μM] FLT3.
The mark [6] stands for this setting: 1 μM ATP, read-out: IC50 values [μM] MET.
Where [7] appears, read: 1 μM ATP, read-out: IC50 values [μM] TIE2.
Setting [8] is: 1 μM ATP, read-out: IC50 values [μM] VEGF-R2.

T8 sequence (P35968 20-1356): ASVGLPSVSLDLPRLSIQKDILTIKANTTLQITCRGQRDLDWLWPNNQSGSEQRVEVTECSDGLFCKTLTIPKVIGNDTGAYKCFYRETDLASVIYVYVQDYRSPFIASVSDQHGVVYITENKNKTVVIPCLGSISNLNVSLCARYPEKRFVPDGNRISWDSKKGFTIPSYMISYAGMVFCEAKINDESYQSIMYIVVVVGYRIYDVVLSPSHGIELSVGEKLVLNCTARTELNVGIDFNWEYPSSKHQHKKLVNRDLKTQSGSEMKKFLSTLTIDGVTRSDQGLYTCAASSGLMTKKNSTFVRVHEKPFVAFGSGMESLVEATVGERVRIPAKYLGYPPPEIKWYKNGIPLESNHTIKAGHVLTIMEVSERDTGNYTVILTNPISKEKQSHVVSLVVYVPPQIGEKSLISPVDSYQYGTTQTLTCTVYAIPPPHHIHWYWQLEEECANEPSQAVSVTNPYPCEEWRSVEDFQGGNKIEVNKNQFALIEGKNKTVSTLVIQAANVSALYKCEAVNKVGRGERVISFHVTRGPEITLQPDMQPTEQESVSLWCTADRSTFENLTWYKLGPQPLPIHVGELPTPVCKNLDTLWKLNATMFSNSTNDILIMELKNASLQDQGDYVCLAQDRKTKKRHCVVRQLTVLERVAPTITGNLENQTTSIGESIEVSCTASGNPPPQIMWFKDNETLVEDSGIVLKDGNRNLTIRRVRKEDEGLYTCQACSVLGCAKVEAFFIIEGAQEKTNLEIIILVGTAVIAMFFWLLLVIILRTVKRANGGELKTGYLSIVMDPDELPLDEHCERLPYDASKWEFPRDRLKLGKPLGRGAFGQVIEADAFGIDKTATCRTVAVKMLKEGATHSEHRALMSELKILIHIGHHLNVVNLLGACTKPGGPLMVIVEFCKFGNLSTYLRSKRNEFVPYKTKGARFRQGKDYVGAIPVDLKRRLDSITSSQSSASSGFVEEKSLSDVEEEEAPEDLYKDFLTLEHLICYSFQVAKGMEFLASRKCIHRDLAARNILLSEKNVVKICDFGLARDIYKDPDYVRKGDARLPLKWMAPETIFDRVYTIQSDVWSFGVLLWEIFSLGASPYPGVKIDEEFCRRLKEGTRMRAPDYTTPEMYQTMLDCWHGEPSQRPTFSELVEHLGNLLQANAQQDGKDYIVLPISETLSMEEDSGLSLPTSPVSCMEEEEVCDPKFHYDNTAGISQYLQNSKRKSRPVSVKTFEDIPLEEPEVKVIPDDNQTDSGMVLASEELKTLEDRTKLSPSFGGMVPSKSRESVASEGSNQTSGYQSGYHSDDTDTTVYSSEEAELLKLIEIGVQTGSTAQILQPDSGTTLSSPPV
T6 sequence (P08581 25-1390): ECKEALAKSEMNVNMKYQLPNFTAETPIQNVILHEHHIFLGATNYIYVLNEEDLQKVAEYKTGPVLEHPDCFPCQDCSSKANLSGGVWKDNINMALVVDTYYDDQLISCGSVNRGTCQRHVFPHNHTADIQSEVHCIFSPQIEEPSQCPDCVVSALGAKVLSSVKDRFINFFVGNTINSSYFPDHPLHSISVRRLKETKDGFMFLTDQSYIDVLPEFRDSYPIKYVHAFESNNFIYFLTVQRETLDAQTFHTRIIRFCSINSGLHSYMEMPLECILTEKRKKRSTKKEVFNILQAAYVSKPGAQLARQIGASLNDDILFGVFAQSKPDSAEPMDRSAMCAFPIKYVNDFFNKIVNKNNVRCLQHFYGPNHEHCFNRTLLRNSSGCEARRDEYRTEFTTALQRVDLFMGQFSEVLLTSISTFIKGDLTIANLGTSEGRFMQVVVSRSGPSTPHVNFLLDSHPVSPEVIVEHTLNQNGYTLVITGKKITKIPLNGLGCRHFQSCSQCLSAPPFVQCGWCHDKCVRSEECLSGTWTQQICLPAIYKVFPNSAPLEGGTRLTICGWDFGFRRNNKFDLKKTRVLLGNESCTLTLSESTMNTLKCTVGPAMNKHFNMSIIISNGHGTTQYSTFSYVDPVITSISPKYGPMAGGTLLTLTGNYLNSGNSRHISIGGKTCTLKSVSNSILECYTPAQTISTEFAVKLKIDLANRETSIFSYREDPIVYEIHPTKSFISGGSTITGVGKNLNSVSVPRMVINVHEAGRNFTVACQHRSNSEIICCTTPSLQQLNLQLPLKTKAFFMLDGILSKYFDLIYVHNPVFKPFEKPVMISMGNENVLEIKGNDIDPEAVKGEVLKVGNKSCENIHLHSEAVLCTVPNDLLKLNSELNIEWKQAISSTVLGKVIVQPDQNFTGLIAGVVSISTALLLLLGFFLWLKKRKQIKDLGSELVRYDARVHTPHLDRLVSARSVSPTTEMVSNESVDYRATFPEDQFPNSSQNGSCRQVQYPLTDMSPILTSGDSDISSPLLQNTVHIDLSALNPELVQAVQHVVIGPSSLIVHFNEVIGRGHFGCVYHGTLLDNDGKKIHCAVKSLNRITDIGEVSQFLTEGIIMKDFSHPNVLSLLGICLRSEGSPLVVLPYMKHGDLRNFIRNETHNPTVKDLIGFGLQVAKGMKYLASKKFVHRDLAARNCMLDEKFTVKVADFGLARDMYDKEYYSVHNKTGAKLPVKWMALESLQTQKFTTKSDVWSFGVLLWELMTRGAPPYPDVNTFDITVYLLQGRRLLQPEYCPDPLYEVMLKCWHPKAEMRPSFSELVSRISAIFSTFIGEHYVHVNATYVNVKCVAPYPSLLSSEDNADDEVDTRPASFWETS

Regarding `CC(C)n1c2c(c3c1-c1ccccc1C3=O)C(=O)CCC2` [Compound 4b, 5-Isopropyl-5,6,7,8-tetrahydroindeno[1,2-b]indole-9,10-dione], the IC50 on AKT1, at CDK4/CycD1, against COT, at FAK, against FLT3 and against MET was greater than 10 µM each time. Further, the IC50 on TIE2 and on VEGF-R2 was greater than 10 µM each time.
On to `CC(C)n1c2c(=O)ccc(=O)c2c2c(=O)c3ccccc3c21` [Compound 6b, 5-Isopropyl-5H-indeno[1,2-b]indole-6,9,10-trione], for which the IC50 at AKT1 (setting [1]) is 9.3 µM; on CDK4/CycD1 (setting [2]), greater than 10 µM; at COT (setting [3]), 9.3 µM; at FAK (setting [4]), greater than 10 µM; on FLT3 (setting [5]), 0.051 µM; on MET (setting [6]), greater than 10 µM. The results for the IC50 on TIE2 (setting [7]) and at VEGF-R2 (setting [8]) were 3.2 µM and 1.9 µM, respectively.
For the molecule `O=c1ccc(=O)c2c1c1c(=O)c3ccccc3c1n2Cc1ccccc1` [Compound 6c, 5-Benzyl 5,6,9,10-tetrahydroindeno[1,2-b]indole-6,9,10-trione], the IC50 was greater than 10 µM on AKT1 (setting [1]); 7.6 µM on CDK4/CycD1 (setting [2]); 4.4 µM at COT (setting [3]); greater than 10 µM at FAK (setting [4]); 9.2 µM at FLT3 (setting [5]); greater than 10 µM on MET (setting [6]). For the same molecule, the values for the IC50 at TIE2 (setting [7]) and at VEGF-R2 (setting [8]) were 4.7 µM and 3.3 µM, respectively.
